This is an account of results in patent US20030207812A1, “Cd45 inhibitors” (priority 2002, published 2003).

One data set relates to T cells (PBMC). The data set is described as follows: cells. The data set is classed as cell-based, human. The note with it: human PBMC, OKT3 30 ng/mL, [3H]thymidine; read-out: T cell prolif. IC50.
Data set [1] relates to T-cell lymphoblasts. Description: Cytotoxicity assay (Calcein-AM uptake). As to conditions: PHA-expanded T-cell lymphoblasts, overnight incubation, Calcein-AM.
The target in data set [2] is T1, CD45 (Homo sapiens, UniProt P08575).
T1 construct: incubating the cytosolic portion of CD45 with the compounds and p-nitrophenyl phosphate (pNPP); purchased BIOMOL (Plymouth Meeting, Pa.)
T1 sequence (P08575 599-1306 limits assumed): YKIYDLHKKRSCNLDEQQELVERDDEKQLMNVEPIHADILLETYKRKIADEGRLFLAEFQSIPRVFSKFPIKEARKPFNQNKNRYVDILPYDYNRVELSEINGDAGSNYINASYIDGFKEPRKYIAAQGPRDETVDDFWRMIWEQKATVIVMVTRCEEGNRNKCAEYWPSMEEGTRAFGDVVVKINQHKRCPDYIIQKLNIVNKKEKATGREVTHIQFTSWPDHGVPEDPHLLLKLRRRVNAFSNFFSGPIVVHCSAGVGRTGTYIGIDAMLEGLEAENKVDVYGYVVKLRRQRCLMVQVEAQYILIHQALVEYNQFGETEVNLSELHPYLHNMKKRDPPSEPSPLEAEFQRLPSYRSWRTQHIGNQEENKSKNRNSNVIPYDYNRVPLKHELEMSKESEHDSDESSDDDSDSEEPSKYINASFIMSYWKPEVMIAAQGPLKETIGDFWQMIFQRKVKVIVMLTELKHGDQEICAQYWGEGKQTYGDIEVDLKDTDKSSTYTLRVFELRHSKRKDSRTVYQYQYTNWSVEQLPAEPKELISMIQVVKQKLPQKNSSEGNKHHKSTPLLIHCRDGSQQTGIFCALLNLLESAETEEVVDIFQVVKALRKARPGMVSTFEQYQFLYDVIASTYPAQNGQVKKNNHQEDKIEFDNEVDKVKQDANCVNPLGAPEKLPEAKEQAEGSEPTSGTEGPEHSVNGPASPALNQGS
Description: Phosphatase assay using pNPP as substrate. The class given is biochemical. As to conditions: CD45 phosphatase, pNPP substrate, pH 7.0; read-out: pNPP IC50. The protocol:
Phosphatase assay using pNPP as substrate:
CD45 enzyme was obtained from BIOMOL (Plymouth Meeting, Pa.). Phosphatase activity was assayed in a buffer containing final concentrations of 25 mM imidazole at pH 7.0, 50 mM NaCl, 2.5 mM ethylenediaminetetraacetic acid (“EDTA”), 5 mM dithiothreitol (“DTT”) and 10 μg/mL bovine serum albumin (“BSA”) using pNPP as a substrate.

The target in data set [3] is T1, CD45. The data set is described as follows: Phosphatase assay using lck 10-mer as substrate. The class given is biochemical. The note with it: CD45 phosphatase, lck carboxy-terminal peptide TEGQpYQPQP substrate, pH 7.2; read-out: Ick IC50. Put shortly:
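Enzyme incubated with lck phosphopeptide TEGQpYQPQP for 1.5 h at room temperature in 25 mM HEPES pH 7.2, 5 mM DTT, 10 μg/mL BSA, 5% DMSO final. Compounds tested from 30 to 0.01 μM. Released phosphate detected with malachite-type Green Reagent, absorbance at 620 nm after 30 min.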

Data set [4] relates to T-cell lymphoblasts.

Where two headings read alike, the source gives them in different places. Where only a bound is given, the exact number is not on record here.

One may read the IC50 as the concentration needed to halve the response being measured. As usually defined, the CC50 is the concentration that lowers cell viability or growth by half. Take “8-(9,10-Dioxo-9,10-dihydro-phenanthren-3-ylcarbamoyl)-heptanoic Acid Methyl Ester [Example 78]”: the IC50 in the data set with T cells (PBMC) came to 1.3 µM; on CD45 [2] it was 0.7 µM; at CD45 [3], 6.9 µM. For the same molecule, the CC50 in the data set on T-cell lymphoblasts [1] was 28 µM.
In the case of `COC(=O)CCCCCCCCC(=O)Nc1ccc2c(c1)-c1ccccc1C(=O)C2=O` [Example 79, 9-(9,10-Dioxo-9,10-dihydro-phenanthren-3-ylcarbamoyl)-nionanoic Acid Methyl Ester], the IC50 in the data set with T cells (PBMC) is 0.5 µM; at CD45 [2], 1.6 µM; at CD45 [3], more than 30 µM. Besides, the CC50 in the data set with T-cell lymphoblasts [1] was more than 30 µM.
As for `O=C1C(=O)c2c(-c3ccc4ccccc4c3)cccc2-c2ccccc21` [Example 19, 1 -Naphthalen-2-yl-phenanthrene-9,10-dione], the values for the IC50 in the data set on T cells (PBMC), at CD45 [2] and on CD45 [3] were 1.6 µM, 4.49 µM and more than 30 µM, respectively. The molecule also gave a CC50 in the data set with T-cell lymphoblasts [4] of 4.4 µM.
For `O=C1C(=O)c2ccc(NC(=O)C(Cl)(Cl)Cl)cc2-c2ccccc21` [Example 11, 2,2,2-Trichloro-N(9,10-dioxo-9,10-dihydro-phenanthren-3-yl)-acetamide], the half-maximal inhibitory concentration (IC50) came out at 6.5 µM with T cells (PBMC), 2.8 µM on CD45 [2] and 11.6 µM at CD45 [3]. Further, in the data set on T-cell lymphoblasts [1], the CC50 is more than 30 µM.
The corresponding values for `CCCC(=O)Nc1ccc2c(c1)-c1ccccc1C(=O)C2=O` [Example 9, N-(9,10-Dioxo-9,10-dihydro-phenenathren-3-yl)-butyramide] are 0.8 µM, 0.8 µM, 5.2 µM and 9.1 µM.
